Literature values in PMC9101684, “Hempseed (Cannabis sativa) Peptide H3 ([sequence]) Exerts Cholesterol-Lowering Effects in Human Hepatic Cell Line” (Nutrients, 2022).
Like-named read-outs stand apart in the source and are kept apart here.

Experiments:
HMGCoAR = test system: HMGCoAR; design: method as in 5 sources, ref 24 = [24]; PMID 2513368; doi:10.1016/S0022-2275(20)38255-9; 24. Mosley S.T. Kalinowski S.S. Schafer B.L. Tanaka R.D. Tissue-selective acute effects of inhibitors of 3-hydroxy-3-methylglutaryl coenzyme A reductase on cholesterol biosynthesis in lens J. Lipid Re ||| ref 32 = [32]; PMID 25690031; doi:10.3390/ijms16024150; 32. Soares R.A.M. Mendonça S. De Castro L.Í.A. Menezes A.C.C.C.C. Arêas J.A.G. Major Peptides from Amaranth (Amaranthus cruentus) Protein Inhibit HMG-CoA Reductase Activity Int. J. Mol. Sci. 2015 16 4 ||| ref 33 = [33]; doi:10.1016/j.jff.2015.02.021; 33. Lammi C. Zanoni C. Arnoldi A. […], […], and LPYP, three peptides from soy glycinin, modulate cholesterol metabolism in HepG2 cells through the activation of the LDLR-SREBP2 pathway J. Fu ||| ref 34 = [34]; PMID 26310992; doi:10.1021/acs.jafc.5b03497; 34. Lammi C. Zanoni C. Arnoldi A. Vistoli G. Two Peptides from Soy β-Conglycinin Induce a Hypocholesterolemic Effect in HepG2 Cells by a Statin-Like Mechanism: Comparative in Vitro and in Silico Model ||| ref 11, 12 = [11]; PMID 29096438; doi:10.1021/acs.jafc.7b03590; 11. Aiello G. Lammi C. Boschin G. Zanoni C. Arnoldi A. Exploration of Potentially Bioactive Peptides Generated from the Enzymatic Hydrolysis of Hempseed Proteins J. Agric. Food Chem. 2017 65 10174 101 || [12]; PMID 28931275; doi:10.1021/acs.jafc.7b02742; 12. Zanoni C. Aiello G. Arnoldi A. Lammi C. Hempseed Peptides Exert Hypocholesterolemic Effects with a Statin-Like Mechanism J. Agric. Food Chem. 2017 65 8829 8838 10.1021/acs.jafc.7b02742 28931275; details: cited from earlier work
Excerpt: Th ... || CVD is a multifactorial pathology in which oxidative and inflammatory status as well as hypercholesterolemia are among the main risk factors.

AMPK = details: cited from earlier work
Excerpt: Furthermore, it is also known that statins are able to activate AMPK [44] with the consequence of a synergistic inhibition of HMGCoAR activity, its direct target. In agreement with these evidences, our results provide a clear indication that, similarly to statins, peptide H3 increases the phosphorylation level of AMPK at the Thr172 residue of the catalytic subunit, which in turn produces an inhibition of ...

[1] = from soybean β-conglycinin, read-out: IC50, HMGCoAR (soybean β-conglycinin peptides)
[2] = from soybean glycinin hydrolysis with pepsin, read-out: IC50, HMGCoAR (soybean glycinin peptides)
[3] = LTFPGSAED from lupin protein, VGVL from amaranth protein, hydrolysis with pepsin, read-out: IC50, HMGCoAR (literature peptides)

| Substance | mechanism of HMGCoAR inhibition (AMPK phosphorylation) (AMPK; soybean peptides) | IC50 (HMGCoAR; [2]) | further results |
| --- | --- | --- | --- |
| YVVNPDNNEN [peptide from soybean β-conglycinin] | – | – | IC50 (HMGCoAR; [1]): 200 µM |
| IAVPTGVA [peptide from soybean glycinin hydrolysis with pepsin] | share the same mechanism of HMGCoAR inhibition | 247 µM | – |
| LILPKHSDAD [peptide from lupin protein hydrolysis with pepsin] | – | – | mechanism of HMGCoAR inhibition (AMPK phosphorylation) (AMPK; lupin peptides): share the same mechanism of HMGCoAR inhibition |
| VGVL [peptide from amaranth protein hydrolysis with pepsin] | – | – | IC50 (HMGCoAR; [3]): 50 µM |
| IAVPGEVA [peptide from soybean glycinin hydrolysis with pepsin] | share the same mechanism of HMGCoAR inhibition | 222 µM | – |
| LTFPGSAED [peptide from lupin protein hydrolysis with pepsin] | – | – | mechanism of HMGCoAR inhibition (AMPK phosphorylation) (AMPK; lupin peptides): share the same mechanism of HMGCoAR inhibition; IC50 (HMGCoAR; [3]): 68.4 µM |
| YVVNPDNDEN [peptide from soybean β-conglycinin] | – | – | IC50 (HMGCoAR; [1]): 150 µM |
| LPYP [peptide from soybean glycinin hydrolysis with pepsin] | share the same mechanism of HMGCoAR inhibition | 300 µM | – |
